Experiment [1] has as its target T1, Probable nicotinate-nucleotide adenylyltransferase (Staphylococcus aureus (strain N315), UniProt P65502). The class given is functional, Staphylococcus aureus subsp. aureus N315. As to conditions: read-out: IC50_Mean.
Experiment [2] deals with T2, Low molecular weight phosphotyrosine protein phosphatase (Homo sapiens, UniProt P24666). In kind it is functional. As to conditions: read-out: IC50_Mean.
The target of experiment [3] is T1, Probable nicotinate-nucleotide adenylyltransferase. In kind it is functional, Staphylococcus aureus subsp. aureus N315.
A further experiment deals with Cytochrome P450 2C19 (Homo sapiens, UniProt P33261). The experiment can be described thus: Cytochrome panel assay with activity outcomes. Panel member name: p450-cyp2c19 Compounds with AC50 equal or less than 10 uM are considered active. As to conditions: read-out: AC50. The class given is functional.
The target of experiment [4] is T2, Low molecular weight phosphotyrosine protein phosphatase. The class given is functional. As to conditions: read-out: IC50_Mean. This is another data set of the same source.
For experiment [5], the target named is T3, Carboxy-terminal domain RNA polymerase II polypeptide A small phosphatase 1 (Homo sapiens, UniProt Q9GZU7).
T3 sequence (Q9GZU7 whole entry): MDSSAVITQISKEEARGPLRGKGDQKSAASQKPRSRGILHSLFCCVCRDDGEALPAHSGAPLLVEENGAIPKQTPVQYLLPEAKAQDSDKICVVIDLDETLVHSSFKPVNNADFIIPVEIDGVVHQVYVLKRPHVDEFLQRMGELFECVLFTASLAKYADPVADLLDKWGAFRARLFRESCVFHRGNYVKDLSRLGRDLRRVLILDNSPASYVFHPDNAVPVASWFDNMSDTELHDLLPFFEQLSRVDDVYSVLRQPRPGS
The experiment can be described thus: inhibitors of CTDSP1, concentration-response testing, biochemical assay, absorbance-based, actives from ultra-high-throughput screening (AID 540297). The class given is functional.

A further experiment addresses Cytochrome P450 3A4 (Homo sapiens, UniProt P08684).
The target in experiment [6] is Arf-GAP with SH3 domain, ANK repeat and PH domain-containing protein 1 (Homo sapiens, UniProt Q9ULH1). In kind it is functional.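 Note: biochemical fluorescence polarization dose–response screen measuring inhibition of ASAP1; ASAP1 GAP domain stimulating GTP hydrolysis by truncated human ARF1.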
Experiment [7] concerns the target Photoreceptor-specific nuclear receptor (Homo sapiens, UniProt Q9Y5X4). In kind it is functional, cell-based.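 Note: CHO-S cells with Gal4-NCOR and VP16-NR2E3 two-hybrid luciferase reporter.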
Experiment [8] can be described thus: CRF-BP/CRF-R2 complex antagonists, dose response, cell-based, uHTS hits, 384-well (AID 651639). As to conditions: read-out: IC50_Mean. In kind it is functional, Homo sapiens.
Experiment [9] concerns the target T4, Corticotropin-releasing factor receptor 2/Corticotropin-releasing factor-binding protein (Homo sapiens, UniProt P24387+Q13324).
T4 sequence (Q13324 whole entry): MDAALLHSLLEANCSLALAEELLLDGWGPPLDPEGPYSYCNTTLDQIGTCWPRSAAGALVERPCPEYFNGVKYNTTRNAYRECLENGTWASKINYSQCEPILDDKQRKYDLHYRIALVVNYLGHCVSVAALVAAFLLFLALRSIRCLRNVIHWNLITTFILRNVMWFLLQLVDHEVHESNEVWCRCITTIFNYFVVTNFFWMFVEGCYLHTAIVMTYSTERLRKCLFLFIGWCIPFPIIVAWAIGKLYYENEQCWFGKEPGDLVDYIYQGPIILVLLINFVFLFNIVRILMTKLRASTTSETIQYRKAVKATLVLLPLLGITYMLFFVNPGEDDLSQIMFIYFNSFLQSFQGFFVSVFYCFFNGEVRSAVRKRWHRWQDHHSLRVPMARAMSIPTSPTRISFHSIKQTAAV
T4 sequence (P24387 whole entry): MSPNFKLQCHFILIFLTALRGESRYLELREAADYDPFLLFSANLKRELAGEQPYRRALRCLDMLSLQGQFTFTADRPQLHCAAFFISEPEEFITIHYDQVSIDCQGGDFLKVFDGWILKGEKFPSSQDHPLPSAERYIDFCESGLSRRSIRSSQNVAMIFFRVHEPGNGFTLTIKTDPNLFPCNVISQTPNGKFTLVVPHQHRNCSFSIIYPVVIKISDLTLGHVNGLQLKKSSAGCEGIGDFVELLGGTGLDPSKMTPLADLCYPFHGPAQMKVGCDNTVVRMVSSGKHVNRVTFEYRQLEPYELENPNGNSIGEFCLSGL
The experiment can be described thus: activators of CRF receptor 2 with binding protein – uHTS hits, confirmation (AID 602473). In kind it is functional. Conditions: read-out: EC50_Mean.

The target in experiment [10] is T4, Corticotropin-releasing factor receptor 2/Corticotropin-releasing factor-binding protein. Nature of the experiment: Dose Response confirmation of uHTS hits for small molecule antagonists of the CRF-binding protein and CRF-R2 receptor complex. In kind it is functional. Conditions: read-out: IC50_Mean.
The target in experiment [11] is Tyrosine-protein phosphatase non-receptor type 5 (Homo sapiens, UniProt P54829). Nature of the experiment: STEP phosphatase inhibitors, confirmation, biochemical, fluorescence intensity, uHTS hits (AID 602372). The class given is functional. As to conditions: read-out: IC50_Mean.
Experiment [12] addresses T5, Estrogen receptor beta (Homo sapiens, UniProt Q92731). Nature of the experiment: ERβ–SRC-3 coactivator interaction inhibitors, confirmation, orthogonal assay, biochemical, ELISA, streptavidin-HRP readout (AID 1060). (In general: ELISA stands for enzyme-linked immunosorbent assay.)
Experiment [13] deals with T5, Estrogen receptor beta.
A further experiment deals with T6, Bcl-2-like protein 10 (Homo sapiens, UniProt Q9HD36).
T6 sequence (Q9HD36 whole entry): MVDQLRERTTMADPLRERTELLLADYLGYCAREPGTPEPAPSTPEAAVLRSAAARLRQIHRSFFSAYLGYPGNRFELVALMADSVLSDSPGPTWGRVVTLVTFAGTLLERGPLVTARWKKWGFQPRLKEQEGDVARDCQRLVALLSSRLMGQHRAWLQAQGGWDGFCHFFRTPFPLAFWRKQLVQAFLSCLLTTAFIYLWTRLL
Nature of the experiment: displacers of TR3 peptide from Bcl-B, primary screen, selectivity assay for Bfl-1 inhibitor project, biochemical, fluorescence polarization, FITC-TR3 peptide (AID 748). (In general: Fluorescence polarisation rises when a labelled molecule tumbles more slowly, as on binding a larger partner.)

The target in experiment [14] is Tyrosine-protein phosphatase non-receptor type 11 (Homo sapiens, UniProt Q06124). Nature of the experiment: SHP2 phosphatase inhibition, dose response, selectivity assay for STEP inhibitor project, biochemical (AID 602367). In kind it is functional. As to conditions: read-out: IC50_Mean.
The target in experiment [15] is Dual specificity protein phosphatase 3 (Homo sapiens, UniProt P51452). Nature of the experiment: VHR phosphatase inhibition, dose response, selectivity assay for STEP inhibitor project, biochemical (AID 602374). Conditions: read-out: IC50_Mean. The class given is functional.
The next experiment addresses Estrogen receptor (Homo sapiens, UniProt P03372).
The target in experiment [16] is T7, Tyrosine-protein phosphatase non-receptor type 22 (Homo sapiens, UniProt Q9Y2R2).
T7 sequence (Q9Y2R2 whole entry): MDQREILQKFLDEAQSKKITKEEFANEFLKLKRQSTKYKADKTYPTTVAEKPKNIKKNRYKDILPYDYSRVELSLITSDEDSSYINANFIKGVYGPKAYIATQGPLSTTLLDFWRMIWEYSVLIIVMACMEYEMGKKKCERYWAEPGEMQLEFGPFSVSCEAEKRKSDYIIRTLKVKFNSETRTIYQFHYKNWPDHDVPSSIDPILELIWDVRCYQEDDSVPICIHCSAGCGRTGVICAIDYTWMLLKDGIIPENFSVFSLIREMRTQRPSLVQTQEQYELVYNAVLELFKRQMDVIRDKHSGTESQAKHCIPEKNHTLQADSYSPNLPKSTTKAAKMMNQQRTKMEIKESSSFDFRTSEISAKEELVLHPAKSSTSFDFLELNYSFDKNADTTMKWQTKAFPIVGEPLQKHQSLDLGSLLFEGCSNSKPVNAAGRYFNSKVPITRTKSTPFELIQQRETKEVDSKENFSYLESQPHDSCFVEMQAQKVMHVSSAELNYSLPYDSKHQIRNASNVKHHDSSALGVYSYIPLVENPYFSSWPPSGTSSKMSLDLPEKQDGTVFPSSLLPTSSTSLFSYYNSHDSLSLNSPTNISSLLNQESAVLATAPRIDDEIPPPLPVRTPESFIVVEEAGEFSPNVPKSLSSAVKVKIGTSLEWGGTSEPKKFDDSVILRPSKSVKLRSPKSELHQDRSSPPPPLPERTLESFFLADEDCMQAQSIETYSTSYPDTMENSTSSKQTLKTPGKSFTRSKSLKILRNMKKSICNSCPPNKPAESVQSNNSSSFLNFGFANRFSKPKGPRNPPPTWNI
The experiment can be described thus: PTPN22 phosphatase inhibition, dose response, selectivity assay for STEP inhibitor project, biochemical (AID 624241). In kind it is functional.

The target in experiment [17] is T8, Adenosylmethionine-8-amino-7-oxononanoate aminotransferase (Mycobacterium tuberculosis, UniProt P9WQ81).
T8 sequence (P9WQ81 whole entry): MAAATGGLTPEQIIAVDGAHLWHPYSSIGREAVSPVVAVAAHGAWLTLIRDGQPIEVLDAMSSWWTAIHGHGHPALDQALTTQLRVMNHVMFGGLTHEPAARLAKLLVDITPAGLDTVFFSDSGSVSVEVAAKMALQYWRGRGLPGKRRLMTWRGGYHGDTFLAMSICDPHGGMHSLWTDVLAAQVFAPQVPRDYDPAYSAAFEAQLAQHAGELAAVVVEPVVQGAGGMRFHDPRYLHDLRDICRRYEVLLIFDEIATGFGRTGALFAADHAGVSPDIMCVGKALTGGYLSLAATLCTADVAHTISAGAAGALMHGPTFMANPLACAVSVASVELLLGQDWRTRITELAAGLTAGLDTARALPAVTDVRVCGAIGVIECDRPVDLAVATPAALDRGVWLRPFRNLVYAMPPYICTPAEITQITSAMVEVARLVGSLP
The experiment can be described thus: Mycobacterium tuberculosis BioA enzyme inhibitor Measured in Biochemical System Using Plate Reader - 2163-02_Inhibitor_Dose_CherryPick_Activity. In kind it is functional, Mycobacterium tuberculosis UT205.

The nature of experiment [18]: cytotoxicity in HEK293 cells, dose response, cytotoxicity control, cell-based, plate reader, cherry-pick (AID 651899). The class given is functional.
Experiment [19] concerns the target T9, Rac GTPase-activating protein 1 (Homo sapiens, UniProt Q9H0H5).
T9 sequence (Q9H0H5 whole entry): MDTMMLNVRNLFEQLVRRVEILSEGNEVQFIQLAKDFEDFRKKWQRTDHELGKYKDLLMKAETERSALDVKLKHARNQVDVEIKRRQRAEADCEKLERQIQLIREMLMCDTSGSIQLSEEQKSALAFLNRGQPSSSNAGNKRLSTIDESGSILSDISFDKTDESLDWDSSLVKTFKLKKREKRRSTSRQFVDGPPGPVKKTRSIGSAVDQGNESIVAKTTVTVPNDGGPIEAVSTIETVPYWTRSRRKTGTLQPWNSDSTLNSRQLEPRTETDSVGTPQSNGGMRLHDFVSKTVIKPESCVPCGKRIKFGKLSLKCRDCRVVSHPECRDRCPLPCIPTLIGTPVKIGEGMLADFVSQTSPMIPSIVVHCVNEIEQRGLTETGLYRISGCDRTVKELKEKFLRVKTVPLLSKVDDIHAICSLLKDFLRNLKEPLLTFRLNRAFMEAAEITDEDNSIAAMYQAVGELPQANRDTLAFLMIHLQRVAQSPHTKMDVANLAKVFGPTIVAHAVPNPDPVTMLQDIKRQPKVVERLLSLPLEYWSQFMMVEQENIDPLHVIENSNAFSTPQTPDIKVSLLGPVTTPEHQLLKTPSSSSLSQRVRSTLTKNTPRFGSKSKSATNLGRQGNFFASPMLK
The experiment can be described thus: MgcRacGAP GTPase-activating activity inhibitors, confirmation, biochemical, ADP Hunter fluorescence, primary and confirmatory (AID 624330). In kind it is functional.

Experiment [20] concerns the target Hepatocyte nuclear factor 4-alpha (Homo sapiens, UniProt P41235). The class given is functional, cell-based.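 Note: biochemical luminescence-based dose-response counterscreen measuring inhibition of HNF4 dimerization, run alongside a screen for blockers of ABHD5–perilipin-5 interaction; split luciferase complementation of HNF4 fusion proteins in cell lysate measuring dimerization.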

Active and inactive are the calls of the source.

What is called AC50 is the concentration at which the activity in the assay is half-maximal.

T1 sequence (P65502 whole entry): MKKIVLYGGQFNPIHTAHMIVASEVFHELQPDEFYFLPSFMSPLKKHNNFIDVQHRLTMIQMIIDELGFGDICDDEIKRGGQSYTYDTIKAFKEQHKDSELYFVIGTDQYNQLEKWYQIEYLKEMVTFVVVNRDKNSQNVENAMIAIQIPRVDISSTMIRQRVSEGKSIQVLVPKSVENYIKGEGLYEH
T2 sequence (P24666 whole entry): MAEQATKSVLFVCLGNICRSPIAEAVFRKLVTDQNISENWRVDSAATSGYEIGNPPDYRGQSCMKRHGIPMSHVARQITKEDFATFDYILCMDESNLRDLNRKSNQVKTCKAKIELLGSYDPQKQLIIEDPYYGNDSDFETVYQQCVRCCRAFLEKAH
T5 sequence (Q92731 whole entry): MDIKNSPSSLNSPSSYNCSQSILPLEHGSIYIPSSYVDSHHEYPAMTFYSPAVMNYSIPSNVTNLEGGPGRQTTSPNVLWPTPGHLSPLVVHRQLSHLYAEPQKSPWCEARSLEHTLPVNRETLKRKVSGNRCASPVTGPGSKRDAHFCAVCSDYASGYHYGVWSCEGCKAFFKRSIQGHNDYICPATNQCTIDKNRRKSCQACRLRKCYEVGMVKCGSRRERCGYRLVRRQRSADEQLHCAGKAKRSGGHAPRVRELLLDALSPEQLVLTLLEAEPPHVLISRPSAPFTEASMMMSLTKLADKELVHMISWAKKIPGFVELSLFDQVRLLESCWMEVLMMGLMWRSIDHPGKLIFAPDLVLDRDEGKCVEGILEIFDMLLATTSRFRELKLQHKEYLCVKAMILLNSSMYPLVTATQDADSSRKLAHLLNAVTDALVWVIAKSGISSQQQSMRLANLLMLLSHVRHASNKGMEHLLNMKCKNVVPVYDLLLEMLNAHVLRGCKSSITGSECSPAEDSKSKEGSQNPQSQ
Sequence of Cytochrome P450 2C19 (P33261 whole entry): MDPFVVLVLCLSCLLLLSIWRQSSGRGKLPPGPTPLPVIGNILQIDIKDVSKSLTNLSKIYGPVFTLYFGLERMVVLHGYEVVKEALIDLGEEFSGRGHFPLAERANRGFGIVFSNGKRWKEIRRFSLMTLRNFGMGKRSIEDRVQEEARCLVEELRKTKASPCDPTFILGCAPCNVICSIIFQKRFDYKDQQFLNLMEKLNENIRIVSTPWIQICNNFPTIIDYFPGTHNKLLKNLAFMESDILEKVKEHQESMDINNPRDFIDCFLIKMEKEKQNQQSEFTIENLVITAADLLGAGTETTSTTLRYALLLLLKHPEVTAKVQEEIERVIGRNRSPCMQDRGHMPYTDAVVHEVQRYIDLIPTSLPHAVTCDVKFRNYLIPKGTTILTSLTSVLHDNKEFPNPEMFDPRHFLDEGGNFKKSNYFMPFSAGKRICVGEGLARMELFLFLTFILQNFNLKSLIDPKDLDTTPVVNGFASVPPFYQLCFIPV
Sequence of Dual specificity protein phosphatase 3 (P51452 whole entry): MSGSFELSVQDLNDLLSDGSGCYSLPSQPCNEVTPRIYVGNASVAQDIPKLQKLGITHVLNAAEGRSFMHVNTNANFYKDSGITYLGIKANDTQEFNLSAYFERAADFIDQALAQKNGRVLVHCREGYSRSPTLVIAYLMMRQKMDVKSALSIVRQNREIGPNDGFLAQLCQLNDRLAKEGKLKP
Sequence of Photoreceptor-specific nuclear receptor (Q9Y5X4 whole entry, the tested form may be a part): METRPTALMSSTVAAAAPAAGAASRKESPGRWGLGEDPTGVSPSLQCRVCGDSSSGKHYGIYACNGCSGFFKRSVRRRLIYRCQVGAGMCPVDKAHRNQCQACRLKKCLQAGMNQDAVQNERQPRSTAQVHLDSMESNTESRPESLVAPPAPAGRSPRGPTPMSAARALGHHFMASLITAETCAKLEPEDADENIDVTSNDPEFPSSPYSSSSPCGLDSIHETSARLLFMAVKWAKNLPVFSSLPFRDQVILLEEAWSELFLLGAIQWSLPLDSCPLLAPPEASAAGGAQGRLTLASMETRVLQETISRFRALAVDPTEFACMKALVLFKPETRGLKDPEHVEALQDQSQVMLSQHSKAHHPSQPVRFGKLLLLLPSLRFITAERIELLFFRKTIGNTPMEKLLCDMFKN
Sequence of Tyrosine-protein phosphatase non-receptor type 5 (P54829 whole entry): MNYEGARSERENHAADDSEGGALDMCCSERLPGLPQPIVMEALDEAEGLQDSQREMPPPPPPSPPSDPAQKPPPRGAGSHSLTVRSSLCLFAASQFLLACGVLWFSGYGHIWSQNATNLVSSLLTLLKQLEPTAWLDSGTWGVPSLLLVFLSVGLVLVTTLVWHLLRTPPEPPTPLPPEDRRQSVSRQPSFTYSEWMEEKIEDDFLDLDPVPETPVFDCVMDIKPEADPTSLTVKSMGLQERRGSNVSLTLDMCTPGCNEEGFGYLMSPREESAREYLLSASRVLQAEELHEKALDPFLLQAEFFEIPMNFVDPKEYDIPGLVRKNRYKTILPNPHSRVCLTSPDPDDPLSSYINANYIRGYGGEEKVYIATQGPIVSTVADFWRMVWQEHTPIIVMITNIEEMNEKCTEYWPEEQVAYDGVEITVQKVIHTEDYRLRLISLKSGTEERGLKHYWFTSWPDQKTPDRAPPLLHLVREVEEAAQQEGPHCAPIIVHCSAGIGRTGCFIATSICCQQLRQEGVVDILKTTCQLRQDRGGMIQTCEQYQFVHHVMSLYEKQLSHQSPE
Sequence of Tyrosine-protein phosphatase non-receptor type 11 (Q06124 whole entry): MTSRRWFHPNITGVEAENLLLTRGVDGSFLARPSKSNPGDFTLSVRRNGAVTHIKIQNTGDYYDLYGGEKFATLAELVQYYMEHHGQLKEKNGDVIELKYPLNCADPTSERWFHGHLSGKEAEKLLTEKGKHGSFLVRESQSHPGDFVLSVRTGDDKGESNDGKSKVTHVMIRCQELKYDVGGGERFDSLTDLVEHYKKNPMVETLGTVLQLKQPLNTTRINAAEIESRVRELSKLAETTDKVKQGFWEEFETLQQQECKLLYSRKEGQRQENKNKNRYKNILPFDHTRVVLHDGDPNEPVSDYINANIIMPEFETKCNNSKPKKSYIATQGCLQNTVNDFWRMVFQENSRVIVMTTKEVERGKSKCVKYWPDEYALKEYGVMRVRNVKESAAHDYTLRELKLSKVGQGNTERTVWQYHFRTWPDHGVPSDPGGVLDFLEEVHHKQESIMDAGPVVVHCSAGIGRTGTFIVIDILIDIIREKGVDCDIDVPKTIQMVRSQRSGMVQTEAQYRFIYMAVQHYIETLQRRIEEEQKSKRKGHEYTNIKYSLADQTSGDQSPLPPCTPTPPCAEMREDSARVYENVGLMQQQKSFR
Sequence of Arf-GAP with SH3 domain, ANK repeat and PH domain-containing protein 1 (Q9ULH1 whole entry, the tested form may be a part): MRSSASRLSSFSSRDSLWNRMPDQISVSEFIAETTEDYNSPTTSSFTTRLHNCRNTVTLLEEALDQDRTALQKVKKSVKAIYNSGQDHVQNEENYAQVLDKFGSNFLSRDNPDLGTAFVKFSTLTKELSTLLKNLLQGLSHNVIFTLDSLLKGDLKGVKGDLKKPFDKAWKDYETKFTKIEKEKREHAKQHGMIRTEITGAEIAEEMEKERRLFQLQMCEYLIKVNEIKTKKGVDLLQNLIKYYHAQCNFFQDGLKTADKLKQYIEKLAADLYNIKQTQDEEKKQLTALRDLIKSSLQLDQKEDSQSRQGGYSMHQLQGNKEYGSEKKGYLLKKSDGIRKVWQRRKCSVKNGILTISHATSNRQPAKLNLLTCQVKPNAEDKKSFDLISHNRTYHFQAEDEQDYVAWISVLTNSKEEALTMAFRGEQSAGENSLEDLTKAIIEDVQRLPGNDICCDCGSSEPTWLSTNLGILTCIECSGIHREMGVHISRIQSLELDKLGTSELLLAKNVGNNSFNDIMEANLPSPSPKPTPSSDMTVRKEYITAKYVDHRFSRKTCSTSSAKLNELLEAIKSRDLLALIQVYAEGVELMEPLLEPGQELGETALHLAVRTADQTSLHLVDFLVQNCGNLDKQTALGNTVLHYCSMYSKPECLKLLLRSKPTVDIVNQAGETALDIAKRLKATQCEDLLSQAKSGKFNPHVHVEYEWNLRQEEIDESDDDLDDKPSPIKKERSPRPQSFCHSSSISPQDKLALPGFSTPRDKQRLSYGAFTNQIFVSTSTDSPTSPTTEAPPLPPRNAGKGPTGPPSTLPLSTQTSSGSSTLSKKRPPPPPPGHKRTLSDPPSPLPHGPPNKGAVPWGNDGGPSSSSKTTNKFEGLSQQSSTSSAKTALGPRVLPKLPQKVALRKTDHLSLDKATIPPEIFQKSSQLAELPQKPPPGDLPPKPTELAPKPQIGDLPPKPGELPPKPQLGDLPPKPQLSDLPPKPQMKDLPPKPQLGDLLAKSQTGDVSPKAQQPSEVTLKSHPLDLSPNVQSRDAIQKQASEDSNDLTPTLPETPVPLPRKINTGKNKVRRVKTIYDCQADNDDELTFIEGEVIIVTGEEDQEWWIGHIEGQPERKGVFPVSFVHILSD
Sequence of Estrogen receptor (P03372 whole entry): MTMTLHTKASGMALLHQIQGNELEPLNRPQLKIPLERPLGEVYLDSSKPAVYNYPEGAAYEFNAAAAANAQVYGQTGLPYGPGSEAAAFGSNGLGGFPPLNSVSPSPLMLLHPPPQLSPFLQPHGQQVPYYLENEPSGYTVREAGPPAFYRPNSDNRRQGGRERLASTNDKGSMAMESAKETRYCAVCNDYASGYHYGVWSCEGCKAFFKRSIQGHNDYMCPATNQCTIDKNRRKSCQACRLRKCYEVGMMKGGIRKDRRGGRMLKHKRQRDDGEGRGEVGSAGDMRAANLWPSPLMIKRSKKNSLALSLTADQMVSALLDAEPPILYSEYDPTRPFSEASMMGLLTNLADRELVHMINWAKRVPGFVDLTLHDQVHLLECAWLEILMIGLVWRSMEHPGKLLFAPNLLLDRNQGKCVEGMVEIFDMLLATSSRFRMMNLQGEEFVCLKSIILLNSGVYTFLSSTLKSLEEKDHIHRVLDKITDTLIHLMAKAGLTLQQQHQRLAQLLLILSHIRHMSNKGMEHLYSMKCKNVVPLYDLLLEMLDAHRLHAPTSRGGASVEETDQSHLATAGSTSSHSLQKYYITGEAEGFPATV

Regarding `Cc1ccc(C(=O)NNC(=O)c2cc3cc4ccccc4nc3s2)cc1`, the IC50 in [1] was 27.3 µM (active); in experiment [2], 12.8 µM (active); in experiment [3], 12.1 µM (active); in [4] it was 52.9 µM (inactive); in [5] it was 4.33 µM (active). In addition, the AC50 on Cytochrome P450 2C19 is 39.8 µM (inconclusive); on Cytochrome P450 3A4 it was 4.47 µM (inconclusive).
`CC1=CC2=NC(=O)/C(=C\c3ccc(-c4ccc(Cl)cc4)o3)C(=N)N2O1`: in [6], the IC50 was 3.41 µM (active).
For the molecule `Cc1cnc(NC(=O)Cc2ccc(Br)cc2)s1`, the IC50 in [7] was 1.15 µM (active).
In the case of `COc1ccccc1-c1c(C)nn2c(N3CCN(c4ccccc4OC)CC3)cc(C)nc12`, the IC50 is > 20 µM (inactive) in [8] and 12.9 µM (active) in [10]. For the same molecule, in experiment [9], the EC50 was > 53 µM (inactive).
Regarding `Cc1ccc(S(=O)(=O)Cc2ccc(C(=O)O)o2)cc1`, the IC50 in experiment [11] is 23.4 µM (inactive); against Estrogen receptor beta [12], < 0.023 µM (not active); at Estrogen receptor beta [13] it was 5.22 µM (active); on Bcl-2-like protein 10, 16 µM (active); in experiment [14], 0.776 µM (active); in experiment [15], 1.03 µM (active). Further, the IC50 at Estrogen receptor is 18.1 µM (active); in experiment [5] it was 3.66 µM (active); in [16], 21.8 µM (inactive).
Regarding `COc1ccc(-c2[nH]nc3c2CN(C(=O)c2ccc(OC)c(OC)c2)CC3)cc1`, the figures for the AC50 in experiment [17] and in experiment [18] were 0.912 µM (active) and 25.6 µM (active), respectively.
Turning to `CC1(C)C2CCC(CN=C(N)CSS(=O)(=O)O)C1C2` (stereo not given), the IC50 in experiment [19] was 65.3 µM (active); in experiment [20] it was 4.45 µM (active).

The values above are taken from ChEMBL document CHEMBL1201862, “PubChem BioAssay data set” (2004).
